Data published in US9944721B2, “Polysialic acid and use for treatment of neurodegenerative and neuroinflammatory diseases” (RHEINISCHE FRIEDRICH-WILHELMS UNIVERSITÄT BONN, priority 2013, dated 2018).

System: human iPS cell derived neurons
Test: MTT cell viability of human iPS cell derived neurons
Type: cell-based
Conditions: 24 hours
Procedure: Human induced pluripotent stem (iPS) cells (Foreskin-1, WiCell) were used for generation of primitive neural stem cell (pNSC) and their differentiation into neurons according to a modified protocol, which was described to obtain primitive neural precursors from human embryonic stem cells. Briefly, iPS cells were cultured on feeder cells to form small colonies. Next, medium was changed to neural stem cell medium (DMEM/F12:Neurobasal; GIBCO) in the presence of leukaemia inhibiting factor (LIF; Millipore, 10 ng/ml) and three small molecules CHIR99021 (inhibitor of GSK-30, Axon Medchem, […]) and SB431542 (inhibitor of TGF-β and activin receptors; Axon Medchem, 3 μM), and Compound E (inhibitor of γ-secretase; Axon Medchem, 0.1 μM) for 10 days. […]
Cell viability was determined by the (3-(4,5-Dimethylthiazol-2-yl)-2,5-diphenyltetrazolium bromide (MTT) assay (Millipore). Cells were treated for 24 hours with 5 nM, 15 nM, 50 nM, 150 nM, 500 nM, 1.5 μM, 5 μM, 15 μM, 50 μM or 150 μM of PSA-20. After 20 hours of stimulation, 10 μl of MTT-reagent was added and cells were cultured for another 4 hours. Then, cells were lysed with isopropanol containing 0.04 M HCl 1M to measure the dye formazan. The light absorbance of the purple formazan dye was determined by a spectrophotometer at a wavelength of 570 nm with a reference wavelength of 630 nm (Perkin Elmer, Envision Multiplate Reader). […]

## poly-(α(2→8)Neu5Ac)n [PSA-20]
5 nM to 150 μM, FIG. 10A
  cell viability of human neurons (MTT): not reduced
150 μM
  neuronal cell viability (MTT): no interference
